Test results: patent publication US12077503B2, “Substituted cyclic amides and their use as herbicides” (FMC CORPORATION, priority 2015, dated 2024)

Assays:
Assay in all cases: Test C preemergence
Type in all cases: in vivo
[1] = test system: blackgrass (Alopecurus myosuroides); conditions: for Plant response rating, Blackgrass: scale 0 to 100, 0 no effect, 100 complete control
In short: (§1)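 Assessment: visual, 13–15 d after treatment, 0 (no effect) to 100 (complete control) relative to controls. Treatment: preemergence to seeds in loam-sand soil, or postemergence to 1- to 4-leaf plants in peat-based medium. Formulation: non-phytotoxic solvent mixture with surfactant.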

[2] = test system: lambsquarters (Chenopodium album); conditions: for Plant response rating, Lambsquarters: scale 0 to 100, 0 no effect, 100 complete control
In short: as §1

[3] = test system: foxtail, giant (giant foxtail, Setaria faberii); conditions: for Plant response rating, Foxtail, Giant: scale 0 to 100, 0 no effect, 100 complete control
In short: as §1

[4] = test system: wheat (winter wheat, Triticum aestivum); conditions: for Plant response rating, Wheat: scale 0 to 100, 0 no effect, 100 complete control
In short: as §1

corn (Zea mays) = conditions: for Plant response rating, Corn: scale 0 to 100, 0 no effect, 100 complete control
In short: as §1

[5] = test system: ryegrass, Italian (Italian ryegrass, Lolium multiflorum); conditions: for Plant response rating, Ryegrass, Italian: scale 0 to 100, 0 no effect, 100 complete control
In short: as §1

[6] = test system: waterhemp (common waterhemp, Amaranthus rudis); conditions: for Plant response rating, Waterhemp: scale 0 to 100, 0 no effect, 100 complete control
In short: as §1

[7] = test system: nutsedge, yellow (yellow nutsedge, Cyperus esculentus); conditions: for Plant response rating, Nutsedge, Yellow: scale 0 to 100, 0 no effect, 100 complete control
In short: as §1

soybean (Glycine max) = conditions: for Plant response rating, Soybean: scale 0 to 100, 0 no effect, 100 complete control
In short: as §1

[8] = test system: oilseed rape (Brassica napus); conditions: for Plant response rating, Oilseed Rape: scale 0 to 100, 0 no effect, 100 complete control
In short: as §1

[9] = test system: Galium (catchweed bedstraw, Galium aparine); conditions: for Plant response rating, Galium: scale 0 to 100, 0 no effect, 100 complete control
In short: as §1

[10] = test system: morningglory (Ipomoea coccinea); conditions: for Plant response rating, Morningglory: scale 0 to 100, 0 no effect, 100 complete control
In short: as §1

[11] = test system: ragweed (common ragweed, Ambrosia elatior); conditions: for Plant response rating, Ragweed: scale 0 to 100, 0 no effect, 100 complete control
In short: as §1

[12] = test system: johnsongrass (Sorghum halepense); conditions: for Plant response rating, Johnsongrass: scale 0 to 100, 0 no effect, 100 complete control
In short: as §1

[13] = test system: velvetleaf (Abutilon theophrasti); conditions: for Plant response rating, Velvetleaf: scale 0 to 100, 0 no effect, 100 complete control
In short: as §1

[14] = test system: crabgrass, large (large crabgrass, Digitaria sanguinalis); conditions: for Plant response rating, Crabgrass, Large: scale 0 to 100, 0 no effect, 100 complete control
In short: as §1

[15] = test system: barnyardgrass (Echinochloa crus-galli); conditions: for Plant response rating, Barnyardgrass: scale 0 to 100, 0 no effect, 100 complete control
In short: as §1

[16] = 31 g ai/ha, 0 is no effect, 100 is complete control

CN1CC(c2ccc(C(F)(F)F)cc2)C(C(=O)Nc2ccccc2S(C)(=O)=O)C1=O (centres unmarked) [Compound 624] was tested, and the “Plant response rating (scale of 0 to 100), Blackgrass” value [1, 16] was 50, the “Plant response rating, Blackgrass” value ([1]; 62 g ai/ha) was 70 and the “Plant response rating, Blackgrass” value ([1]; 125 g ai/ha) was 90. For the same compound, the “Plant response rating, Blackgrass” value ([1]; 250 g ai/ha) was 90, the “Plant response rating (scale of 0 to 100), Lambsquarters” value [2, 16] was 35 and the “Plant response rating, Lambsquarters” value ([2]; 62 g ai/ha) was 40. The “Plant response rating, Lambsquarters” value ([2]; 125 g ai/ha) was 70, the “Plant response rating, Lambsquarters” value ([2]; 250 g ai/ha) was 60 and the “Plant response rating (scale of 0 to 100), Foxtail, Giant” value [3, 16] was 85. For the same compound, the “Plant response rating, Foxtail, Giant” value ([3]; 62 g ai/ha) was 90, the “Plant response rating, Foxtail, Giant” value ([3]; 125 g ai/ha) was 90 and the “Plant response rating, Foxtail, Giant” value ([3]; 250 g ai/ha) was 95. For the same compound, the “Plant response rating (scale of 0 to 100), Wheat” value [4, 16] was 0, the “Plant response rating, Wheat” value ([4]; 62 g ai/ha) was 35 and the “Plant response rating, Wheat” value ([4]; 125 g ai/ha) was 45. The “Plant response rating, Wheat” value ([4]; 250 g ai/ha) was 80, the “Plant response rating (scale of 0 to 100), Corn” value (corn (Zea mays); [16]) was 0 and the “Plant response rating, Corn” value (corn (Zea mays); 62 g ai/ha) was 0. For the same compound, the “Plant response rating, Corn” value (corn (Zea mays); 125 g ai/ha) was 5, the “Plant response rating, Corn” value (corn (Zea mays); 250 g ai/ha) was 65 and the “Plant response rating (scale of 0 to 100), Ryegrass, Italian” value [5, 16] was 10. The “Plant response rating, Ryegrass, Italian” value ([5]; 62 g ai/ha) was 40, the “Plant response rating, Ryegrass, Italian” value ([5]; 125 g ai/ha) was 30 and the “Plant response rating, Ryegrass, Italian” value ([5]; 250 g ai/ha) was 30. For the same compound, the “Plant response rating (scale of 0 to 100), Waterhemp” value [6, 16] was 85, the “Plant response rating, Waterhemp” value ([6]; 62 g ai/ha) was 90 and the “Plant response rating, Waterhemp” value ([6]; 125 g ai/ha) was 90. The “Plant response rating, Waterhemp” value ([6]; 250 g ai/ha) was 100, the “Plant response rating (scale of 0 to 100), Nutsedge, Yellow” value [7, 16] was 0 and the “Plant response rating, Nutsedge, Yellow” value ([7]; 62 g ai/ha) was 0. For the same compound, the “Plant response rating, Nutsedge, Yellow” value ([7]; 125 g ai/ha) was 25, the “Plant response rating, Nutsedge, Yellow” value ([7]; 250 g ai/ha) was 50 and the “Plant response rating (scale of 0 to 100), Soybean” value (soybean (Glycine max); [16]) was 0. For the same compound, the “Plant response rating, Soybean” value (soybean (Glycine max); 62 g ai/ha) was 0, the “Plant response rating, Soybean” value (soybean (Glycine max); 125 g ai/ha) was 15 and the “Plant response rating, Soybean” value (soybean (Glycine max); 250 g ai/ha) was 40. For the same compound, the “Plant response rating (scale of 0 to 100), Oilseed Rape” value [8, 16] was 75, the “Plant response rating, Oilseed Rape” value ([8]; 62 g ai/ha) was 80 and the “Plant response rating, Oilseed Rape” value ([8]; 125 g ai/ha) was 85. For the same compound, the “Plant response rating, Oilseed Rape” value ([8]; 250 g ai/ha) was 85, the “Plant response rating (scale of 0 to 100), Galium” value [9, 16] was 50 and the “Plant response rating, Galium” value ([9]; 62 g ai/ha) was 85. The “Plant response rating, Galium” value ([9]; 125 g ai/ha) was 80, the “Plant response rating, Galium” value ([9]; 250 g ai/ha) was 85 and the “Plant response rating (scale of 0 to 100), Morningglory” value [10, 16] was 0. For the same compound, the “Plant response rating, Morningglory” value ([10]; 62 g ai/ha) was 0, the “Plant response rating, Morningglory” value ([10]; 125 g ai/ha) was 30 and the “Plant response rating, Morningglory” value ([10]; 250 g ai/ha) was 35. The “Plant response rating (scale of 0 to 100), Ragweed” value [11, 16] was 25, the “Plant response rating, Ragweed” value ([11]; 62 g ai/ha) was 55 and the “Plant response rating, Ragweed” value ([11]; 125 g ai/ha) was 75. The “Plant response rating, Ragweed” value ([11]; 250 g ai/ha) was 80, the “Plant response rating (scale of 0 to 100), Johnsongrass” value [12, 16] was 0 and the “Plant response rating, Johnsongrass” value ([12]; 62 g ai/ha) was 0. The “Plant response rating, Johnsongrass” value ([12]; 125 g ai/ha) was 0, the “Plant response rating, Johnsongrass” value ([12]; 250 g ai/ha) was 25 and the “Plant response rating (scale of 0 to 100), Velvetleaf” value [13, 16] was 10. The “Plant response rating, Velvetleaf” value ([13]; 62 g ai/ha) was 30, the “Plant response rating, Velvetleaf” value ([13]; 125 g ai/ha) was 45 and the “Plant response rating, Velvetleaf” value ([13]; 250 g ai/ha) was 65. The “Plant response rating (scale of 0 to 100), Crabgrass, Large” value [14, 16] was 95, the “Plant response rating, Crabgrass, Large” value ([14]; 62 g ai/ha) was 100 and the “Plant response rating, Crabgrass, Large” value ([14]; 125 g ai/ha) was 100. For the same compound, the “Plant response rating, Crabgrass, Large” value ([14]; 250 g ai/ha) was 98, the “Plant response rating (scale of 0 to 100), Barnyardgrass” value [15, 16] was 75 and the “Plant response rating, Barnyardgrass” value ([15]; 62 g ai/ha) was 90. The “Plant response rating, Barnyardgrass” value ([15]; 125 g ai/ha) was 95 and the “Plant response rating, Barnyardgrass” value ([15]; 250 g ai/ha) was 95.
